Test results published in PubChem BioAssay AID328 (DTP/NCI, 2004).
Where “and” joins values, the source holds several entries; their conditions need not be identical. Equal values may be shown once. Inconclusive results and toxic doses are left out. How the source made its calls: active means survival T/C of 150% or more; inactive means T/C below 125% in these data.

System: BDF1 mice, P388 leukemia ip, median survival T/C
Assay: NCI In Vivo Anticancer Drug Screen. Data for tumor model P388 Leukemia (intraperitoneal) in B6D2F1 (BDF1) mice
Conditions: endpoint: median survival time, higher = longer survival
Outline: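 Vehicle-dosed animals serve as the reference; survival of compound-dosed, tumour-implanted mice is divided by it.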

[1] = dose: 6.25 mg/kg/injection, schedule: Q01DX009 (ip), vehicle: saline
[2] = dose: 12.5 mg/kg/injection, schedule: Q01DX009 (ip), vehicle: Klucel (hydroxypropylcellulose) (HPC)
[3] = dose: 25.0 mg/kg/injection, schedule: Q01DX009 (ip), vehicle: Klucel (hydroxypropylcellulose) (HPC)
[4] = dose: 50.0 mg/kg/injection, schedule: Q01DX009 (ip), vehicle: saline with Tween-80
[5] = dose: 100.0 mg/kg/injection, schedule: Q01DX009 (ip), vehicle: saline with Tween-80
[6] = dose: 6.25 mg/kg/injection, schedule: Q01DX009 (ip), vehicle: saline with Tween-80
[7] = dose: 12.5 mg/kg/injection, schedule: Q01DX009 (ip), vehicle: saline with Tween-80
[8] = dose: 100.0 mg/kg/injection, schedule: Q04DX003 (ip), vehicle: Klucel (hydroxypropylcellulose) (HPC)
[9] = dose: 200.0 mg/kg/injection, schedule: Q04DX003 (ip), vehicle: Klucel (hydroxypropylcellulose) (HPC)
[10] = dose: 3.12 mg/kg/injection, schedule: Q01DX009 (ip), vehicle: saline with Tween-80
[11] = dose: 50.0 mg/kg/injection, schedule: Q04DX003 (ip), vehicle: saline with Tween-80
[12] = dose: 100.0 mg/kg/injection, schedule: Q04DX003 (ip), vehicle: saline with Tween-80
[13] = dose: 200.0 mg/kg/injection, schedule: Q04DX003 (ip), vehicle: saline with Tween-80
[14] = dose: 400.0 mg/kg/injection, schedule: Q04DX003 (ip), vehicle: saline with Tween-80
[15] = dose: 6.25 mg/kg/injection, schedule: Q04DX003 (ip), vehicle: saline with Tween-80
[16] = dose: 12.5 mg/kg/injection, schedule: Q04DX003 (ip), vehicle: saline with Tween-80
[17] = dose: 25.0 mg/kg/injection, schedule: Q04DX003 (ip), vehicle: saline with Tween-80

Measured: T/C

CC1(C)N=C(N)Nc2nnc(-c3cccc(Cl)c3)n21
inactive: dose: 100.0 mg/kg/injection, schedule: Q01DX001 (ip), vehicle: saline sonified 105 % of control | dose: 200.0 mg/kg/injection, schedule: Q01DX001 (ip), vehicle: saline sonified 100 % of control | dose: 400.0 mg/kg/injection, schedule: Q01DX001 (ip), vehicle: saline sonified 100 % of control

COc1ccc(CC2c3cc(OC)c(OC)cc3CCN2C(C)=O)cc1OC (configuration not stated)
inactive: dose: 50.0 mg/kg/injection, schedule: Q01DX005 (ip), vehicle: saline with Tween-80 90 % of control | dose: 200.0 mg/kg/injection, schedule: Q01DX005 (ip), vehicle: saline with Tween-80 88 % of control

CCCCCCCCCCCC[N+](C)(C)CCC[N+](C)(C)CCCCCCCCCCCC
inactive: [1] 109 % of control | dose: 12.5 mg/kg/injection, schedule: Q01DX009 (ip), vehicle: saline 116 % of control

[Cl][Rh][Cl].c1cn[nH]c1.c1cn[nH]c1.c1cn[nH]c1.c1cn[nH]c1
inactive: [2] 114 % of control | [3] 94 % of control

Cc1ccccc1CC(N)C(=O)O (configuration not stated)
inactive: [4] 92 % of control | [5] 92 % of control | dose: 200.0 mg/kg/injection, schedule: Q01DX009 (ip), vehicle: saline with Tween-80 90 % of control

CCCCN(CCCC)CCC(=O)c1ccc(OC)c2ccccc12
inactive: [4] 86 % of control

O=[N+]([O-])c1ccc(SCc2ccccc2)c2nonc12
active: [4] 150 % of control | [5] 153 % of control

COc1cc(Br)cc(/C=C/[N+](=O)[O-])c1OC
inactive: [6] 113 % of control | [7] 118 % of control | dose: 25.0 mg/kg/injection, schedule: Q01DX009 (ip), vehicle: saline with Tween-80 109 % of control

COc1cc2ccc(C(C)NCC#N)cc2cc1OC (configuration not stated)
inactive: dose: 50.0 mg/kg/injection, schedule: Q01DX009 (ip), vehicle: Klucel (hydroxypropylcellulose) (HPC) 109 % of control | dose: 50.0 mg/kg/injection, schedule: Q04DX003 (ip), vehicle: Klucel (hydroxypropylcellulose) (HPC) 100 % of control | dose: 100.0 mg/kg/injection, schedule: Q01DX009 (ip), vehicle: Klucel (hydroxypropylcellulose) (HPC) 100 % of control | [8] 95 % of control | dose: 200.0 mg/kg/injection, schedule: Q01DX009 (ip), vehicle: Klucel (hydroxypropylcellulose) (HPC) 122 % of control | [9] 95 % of control

FC(F)(F)C(F)(F)C(F)(F)c1nc2nc(Cl)c(Cl)nc2[nH]1
inactive: [10] 115 % of control | [6] 105 % of control | [7] 95 % of control | [11] 95 % of control | [12] 90 % of control

O=S(=O)(F)c1ccc2nc(-c3cccc(Sc4ccccc4)c3)cc(Cl)c2c1
inactive: [12] 90 % of control | [13] 100 % of control | [14] 100 % of control

CC1CC[N-]CC1.CC1CC[N-]CC1.[Br][Pt+2]([Br])([Br])[Br]
inactive: dose: 1.56 mg/kg/injection, schedule: Q01DX009 (ip), vehicle: saline with Tween-80 100 % of control | [10] 94 % of control | dose: 3.12 mg/kg/injection, schedule: Q04DX003 (ip), vehicle: saline with Tween-80 97 % of control | [6] 107 % of control | [15] 91 % of control and 108 % of control | [16] 100 % of control | [17] 117 % of control | [11] 91 % of control and 121 % of control

O=P(N1CC1)(N1CC1)N1CC1
active: dose: 3.0 mg/kg/injection, schedule: Q01DX010 (ip), vehicle: saline 204 % of control

C=CCN1/C(=C/C=C\c2sc3ccccc3[n+]2CC=C)Sc2ccccc21
inactive: dose: 0.12 mg/kg/injection, schedule: Q01DX009 (ip), vehicle: saline 100 % of control | dose: 0.5 mg/kg/injection, schedule: Q04DX003 (ip), vehicle: Klucel (hydroxypropylcellulose) (HPC) 115 % of control | dose: 1.0 mg/kg/injection, schedule: Q01DX010 (ip), vehicle: saline 123 % of control | dose: 1.0 mg/kg/injection, schedule: Q04DX003 (ip), vehicle: Klucel (hydroxypropylcellulose) (HPC) 110 % of control | dose: 63.0 micrograms/kg/injection, schedule: Q01DX010 (ip), vehicle: saline 90 % of control | dose: 125.0 micrograms/kg/injection, schedule: Q01DX010 (ip), vehicle: saline 90 % of control | dose: 250.0 micrograms/kg/injection, schedule: Q01DX010 (ip), vehicle: saline 90 % of control
active: dose: 0.25 mg/kg/injection, schedule: Q04DX003 (ip), vehicle: Klucel (hydroxypropylcellulose) (HPC) 175 % of control | dose: 1.0 mg/kg/injection, schedule: Q01DX009 (ip), vehicle: saline 154 % of control

CCCOCNC(=O)c1cccnc1
inactive: dose: 100.0 mg/kg/injection, schedule: Q01DX001 (ip), vehicle: saline 95 % of control | dose: 200.0 mg/kg/injection, schedule: Q01DX001 (ip), vehicle: saline 100 % of control | dose: 400.0 mg/kg/injection, schedule: Q01DX001 (ip), vehicle: saline 100 % of control

Cc1cc(C)c(NS(=O)(=O)c2ccc([N+](=O)[O-])cc2)c(C)c1
inactive: dose: 75.0 mg/kg/injection, schedule: Q01DX001 (ip), vehicle: saline with Tween-80 100 % of control | dose: 150.0 mg/kg/injection, schedule: Q01DX001 (ip), vehicle: saline with Tween-80 90 % of control | dose: 300.0 mg/kg/injection, schedule: Q01DX001 (ip), vehicle: saline with Tween-80 100 % of control

CC(=O)OC1C2CCC3C(C)(O)C4CC(O)C(C)(C)C4(O)C(O)CC13CC2(C)O (configuration not stated)
inactive: dose: 12.5 micrograms/kg/injection, schedule: Q01DX009 (ip), vehicle: Klucel (hydroxypropylcellulose) (HPC) 96 % of control | dose: 25.0 micrograms/kg/injection, schedule: Q01DX009 (ip), vehicle: Klucel (hydroxypropylcellulose) (HPC) 91 % of control | dose: 50.0 micrograms/kg/injection, schedule: Q01DX009 (ip), vehicle: Klucel (hydroxypropylcellulose) (HPC) 87 % of control

c1ccc(-c2oc3cc4c(cc3c2-c2ccc(OCCN3CCCC3)cc2)CCC4)cc1
inactive: [12] 95 % of control

CC(=O)c1ccc2c(c1)[nH]c1ccccc12
inactive: [12] 100 % of control | [13] 86 % of control | [14] 95 % of control

CCCCCC[N+](CCCCCC)(CCCCCC)CCCCCC
inactive: dose: 3.0 mg/kg/injection, schedule: Q01DX009 (ip), vehicle: saline with Tween-80 123 % of control | dose: 6.0 mg/kg/injection, schedule: Q01DX009 (ip), vehicle: saline with Tween-80 116 % of control and 119 % of control | [6] 114 % of control | [15] 108 % of control | [16] 95 % of control | [17] 113 % of control

C[C@]1(O)CC[C@H]2[C@@H]3CCC4=CC(=O)CC[C@]4(C)[C@@]3(Cl)[C@@H](O)C[C@@]21C
inactive: dose: 100.0 mg/kg/injection, schedule: Q01DX009 (ip), vehicle: saline sonified 100 % of control | [12] 95 % of control | dose: 200.0 mg/kg/injection, schedule: Q01DX009 (ip), vehicle: saline sonified 100 % of control | [13] 100 % of control | dose: 400.0 mg/kg/injection, schedule: Q01DX009 (ip), vehicle: saline sonified 100 % of control | [14] 100 % of control

CC(=O)N1CSCC1C(=O)O (configuration not stated)
inactive: [8] 100 % of control | [9] 100 % of control | dose: 400.0 mg/kg/injection, schedule: Q04DX003 (ip), vehicle: Klucel (hydroxypropylcellulose) (HPC) 100 % of control

CC[C@@]12CCCN3CC[C@]4(c5cccc(OC)c5N(C(C)=O)[C@@H]4CC1)[C@H]32
inactive: dose: 6.25 mg/kg/injection, schedule: Q01DX009 (ip), vehicle: Klucel (hydroxypropylcellulose) (HPC) 100 % of control | [2] 95 % of control | [3] 104 % of control | dose: 50.0 mg/kg/injection, schedule: Q01DX001 (ip), vehicle: Klucel (hydroxypropylcellulose) (HPC) 108 % of control | dose: 100.0 mg/kg/injection, schedule: Q01DX001 (ip), vehicle: Klucel (hydroxypropylcellulose) (HPC) 116 % of control | dose: 200.0 mg/kg/injection, schedule: Q01DX001 (ip), vehicle: Klucel (hydroxypropylcellulose) (HPC) 91 % of control

CCN(CCO)c1ccc(N)cc1C
inactive: dose: 1.56 mg/kg/injection, schedule: Q01DX009 (ip), vehicle: saline 100 % of control | dose: 3.13 mg/kg/injection, schedule: Q01DX009 (ip), vehicle: saline 100 % of control | [1] 90 % of control
